Where two headings read alike, the source gives them in different places.
Experiments:
[1] = log P by HPLC on reversed-phase columns (C 18), EEC directive 79/831 Annex V.A8; format: physicochemical; conditions: for logP[a]: method [a]; for logP[b]: method [b]; for chromatographic logP: reversed-phase C18 HPLC column
Summary of the method: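 Measured by reversed-phase C18 HPLC (LC-MS) with a linear 10→95% acetonitrile gradient. Acidic: pH 2.7, 0.1% formic acid. Neutral: pH 7.8, 0.001 M ammonium bicarbonate.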

[2] = tested on: greenhouse red spider mite (Tetranychus urticae); test: Tetranychus urticae spray test, OP-resistant (TETRUR); format: in vivo; conditions: after 6 days, bean leaf discs
Summary of the method: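 Bean leaf discs infested with all stages of an OP-resistant strain are sprayed with compound in acetone/DMF with alkylaryl polyglycol ether emulsifier, diluted in water; % mortality after 6 days (100% = all mites killed).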

[3] = tested on: cattle ticks (Boophilus microplus); test: Boophilus microplus injection test (BOOPMI Inj); format: in vivo; conditions: 20 μg/animal, injection into the abdomen, assessed after 7 days
Method: 6. Boophilus microplus Injection Test (BOOPMI Inj)
• Solvent: dimethyl sulphoxide
To produce a suitable preparation of active compound, 10 mg of active compound are mixed with 0.5 ml of solvent, and the concentrate is diluted with solvent to the desired concentration.
1 μl of the active compound solution is injected into the abdomen of 5 fed adult female cattle ticks (Boophilus microplus). The animals are transferred into dishes and kept in a climate-controlled room.
The activity is assessed after 7 days by laying of fertile eggs. Eggs whose fertility is not visible from the outside are stored in a climate-controlled cabinet until the larvae hatch after about 42 days. An efficacy of 100% means that none of the ticks has laid any fertile eggs; 0% means that all eggs are fertile.

[4] = tested on: larvae of the mustard beetle (Phaedon cochleariae); test: Phaedon cochleariae spray test (PHAECO); format: in vivo; conditions: application rate 500 g/ha, after 7 days, Chinese cabbage leaf discs
Method: 2. Phaedon cochleariae Spray Test (PHAECO)
(§1) • Solvents: 78.0 parts by weight of acetone • 1.5 part by weight of dimethylformamide • Emulsifier: 0.5 part by weight of alkylaryl polyglycol ether
(§2) To produce a suitable preparation of active compound, 1 part by weight of active compound is mixed with the stated amounts of solvents and emulsifier, and the concentrate is diluted with emulsifier-containing water to the desired concentration.
After 7 days, the efficacy in % is determined. 100% means that all of the beetle larvae have been killed; 0% means that none of the beetle larvae have been killed.

[5] = tested on: caterpillars of the armyworm (Spodoptera frugiperda); test: Spodoptera frugiperda spray test (SPODFR); format: in vivo; conditions: application rate 500 g/ha, after 7 days, maize leaf discs
Method: 3. Spodoptera frugiperda Spray Test (SPODFR)
as §1, §2
Leaf discs of maize (Zea mays) are sprayed with an active compound preparation of the desired concentration and, after drying, populated with caterpillars of the armyworm (Spodoptera frugiperda).
After 7 days, the efficacy in % is determined. 100% means that all of the caterpillars have been killed; 0% means that none of the caterpillars have been killed.

[6] = tested on: southern root-knot nematode (Meloidogyne incognita); test: Meloidogyne incognita test (MELGIN); format: in vivo; conditions: application rate 20 ppm, after 14 days, lettuce
Method: 5. Meloidogyne incognita Test (MELGIN) • Solvent: 125.0 parts by weight of acetone To prepare a suitable active compound preparation, 1 part by weight of active compound is mixed with the stated amount of solvent and the concentrate is diluted with water to the desired concentration. Vessels are filled with sand, active compound solution, an egg/larvae suspension of the southern root-knot nematode (Meloidogyne incognita) and lettuce seeds. The lettuce seeds germinate and the plants develop. On the roots, galls are formed. After 14 days, the nematicidal effect in % is determined by the formation of galls. 100% means that no galls have been found; 0% means that the number of galls on the treated plants corresponds to the untreated control.

[7] = pH 2.7, acidic range, pH 2.7, 0.1% aqueous formic acid / acetonitrile, read-out: log P[a]
[8] = pH 2.7, method [a], read-out: logP[a]
[9] = pH 7.8, method [b], read-out: logP[b]
[10] = pH 7.8, neutral range, pH 7.8, 0.001 molar aqueous ammonium bicarbonate / acetonitrile, read-out: log P[b]

| chromatographic logP [1, 7] | chromatographic logP [1, 8] | chromatographic logP [1, 9] | chromatographic logP [1, 10] | SMILES | logP[a] [1] | logP[b] [1] | efficacy in % (spider mites killed) ([2]; application rate 500 g/ha) | efficacy in % (laying of fertile eggs) [3] | efficacy in % (beetle larvae killed) [4] | efficacy in % (caterpillars killed) [5] | nematicidal effect in % (formation of galls) [6] | efficacy in % (spider mites killed) ([2]; application rate 100 g/ha) |
| --- | --- | --- | --- | --- | --- | --- | --- | --- | --- | --- | --- | --- |
|  |  |  |  | Cc1ccc(-n2cnc3c(cnn3C)c2=O)cc1[S+]([O-])CC(F)(F)F (racemic) [Compound 27] | 1.57 | 1.57 | 90% | 100% |  |  |  |  |
|  |  |  |  | Cc1ccc(-n2cnc3c(c(C)nn3C)c2=O)cc1[S+]([O-])CC(F)(F)F (racemic) [Compound 33] | 1.79 | 1.75 | 90% |  | 100% | 100% |  |  |
| 2.66 | 2.66 | 2.65 | 2.65 | Cc1cc(F)c(-n2cnc3c(cnn3C)c2=O)cc1SCC(F)(F)F [Compound 1, 5-{2-Fluoro-4-methyl-5-[(2,2,2-trifluoroethyl)sulphanyl]phenyl}-1-methyl-1,5-dihydro-4H-pyrazolo[3,4-d]pyrimidin-4-one] |  |  | 90% |  | 100% |  |  |  |
| 1.73 | 1.73 | 1.69 | 1.69 | Cc1cc(F)c(-n2cnc3c(cnn3C)c2=O)cc1[S+]([O-])CC(F)(F)F (centres unmarked) [Compound 2, 5-{2-Fluoro-4-methyl-5-[(2,2,2-trifluoroethyl)sulphinyl]phenyl}-1-methyl-1,5-dihydro-4H-pyrazolo[3,4-d]pyrimidin-4-one] |  |  | 100% | 100% | 100% |  |  |  |
| 1.85 | 1.85 | 1.84 | 1.84 | Cc1cc(F)c(-n2c(C)nc3c(cnn3C)c2=O)cc1[S+]([O-])CC(F)(F)F (centres unmarked) [Compound 15, 5-{2-Fluoro-4-methyl-5-[(2,2,2-trifluoroethyl)sulphinyl]phenyl}-1,6-dimethyl-1,5-dihydro-4H-pyrazolo[3,4-d]pyrimidin-4-one] |  |  | 90% | 100% |  |  | 90% |  |
|  |  |  |  | Cc1nn(C)c2ncn(-c3ccc(Cl)c(SCC(F)(F)F)c3)c(=O)c12 [Compound 36] | 2.82 | 2.79 |  |  | 100% | 83% |  |  |
|  |  |  |  | Cc1cc(F)c(-n2cnc3cnn(C)c3c2=O)cc1[S+]([O-])CC(F)(F)F (centres unmarked) [Compound 40] | 1.82 | 1.81 | 90% | 100% |  |  | 100% |  |
|  |  |  |  | Cc1cc(F)c(-n2c(C)nc3cnn(C)c3c2=O)cc1[S+]([O-])CC(F)(F)F (centres unmarked) [Compound 41] | 1.90 | 1.88 | 100% | 100% |  |  | 90% |  |
|  |  |  |  | Cc1c2c(=O)n(-c3ccc(C(F)(F)F)c([S+]([O-])CC(F)(F)F)c3)cnc2nn1C (centres unmarked) [Compound 46] | 2.11 | 2.07 |  |  | 100% | 100% | 90% |  |
|  |  |  |  | Cc1cc(F)c(-n2cnc3scnc3c2=O)cc1[S+]([O-])CC(F)(F)F (centres unmarked) [Compound 61] | 1.57 | 1.56 | 90% | 100% | 100% |  | 90% |  |
|  |  |  |  | Cc1nc2c(=O)n(-c3cc([S+]([O-])CC(F)(F)F)c(C)cc3F)cnc2s1 (centres unmarked) [Compound 73] | 1.80 | 1.77 | 100% | 100% |  |  | 90% |  |
|  |  |  |  | Cc1cc(F)c(-n2cnc3ncsc3c2=O)cc1[S+]([O-])CC(F)(F)F (centres unmarked) [Compound 79] | 1.60 | 1.57 | 100% | 100% |  |  | 90% |  |
|  |  |  |  | COc1ccc(-n2cnc3sccc3c2=O)cc1[S+]([O-])CC(F)(F)F (centres unmarked) [Compound 89] | 1.91 | 1.91 |  | 100% | 100% |  | 90% |  |
|  |  |  |  | Cc1cc(F)c(-n2cnc3sccc3c2=O)cc1[S+]([O-])CC(F)(F)F (centres unmarked) [Compound 96] | 2.10 | 2.09 | 100% |  | 100% |  | 90% |  |
|  |  |  |  | Cc1cc(F)c(-n2cnc3ccsc3c2=O)cc1[S+]([O-])CC(F)(F)F (centres unmarked) [Compound 112] | 1.96 | 1.95 |  |  | 100% |  | 90% | 90% |
| 2.14 | 2.14 | 2.1 | 2.1 | Cc1cc(F)c(-n2nnc3c(cnn3C)c2=O)cc1[S+]([O-])CC(F)(F)F (centres unmarked) [Compound 120, 3-{2-Fluoro-4-methyl-5-[(2,2,2-trifluoroethyl)sulphinyl]phenyl}-7-methyl-3,7-dihydro-4H-pyrazolo[3,4-d][1,2,3]triazin-4-one] |  |  | 90% |  | 83% |  |  |  |
|  |  |  |  | Cc1cc(F)c(-n2cnc3c(C)nn(C)c3c2=O)cc1[S+]([O-])CC(F)(F)F (centres unmarked) [Compound 129] |  |  | 90% | 100% |  |  | 90% |  |
|  |  |  |  | Cc1cc(C)c([S+]([O-])CC(F)(F)F)cc1-n1cnc2cnn(C)c2c1=O (centres unmarked) [Compound 134] |  |  | 100% | 100% |  |  | 100% |  |
|  |  |  |  | Cc1cc(F)c(-n2nnc3cnn(C)c3c2=O)cc1[S+]([O-])CC(F)(F)F (centres unmarked) [Compound 136] |  |  | 100% |  | 83% |  | 90% |  |
|  |  |  |  | Cc1cc(F)c(-n2cnc3cnn(C(C)C)c3c2=O)cc1SCC(F)(F)F [Compound 161] |  |  | 100% |  | 83% |  | 100% |  |
|  |  |  |  | Cc1cc(F)c(-n2cnc3cnn(C(C)C)c3c2=O)cc1[S+]([O-])CC(F)(F)F (centres unmarked) [Compound 165] |  |  | 100% |  | 100% |  | 100% |  |
|  |  |  |  | CCc1nsc2ncn(-c3cc(SCC(F)(F)F)c(C)cc3F)c(=O)c12 [Compound 201] |  |  | 90% |  | 100% |  |  |  |
|  |  |  |  | Cc1cc(F)c(-n2cnc3snc(C)c3c2=O)cc1[S+]([O-])CC(F)(F)F (centres unmarked) [Compound 204] |  |  | 90% | 100% | 83% |  | 100% |  |
|  |  |  |  | Cc1cc(F)c(-n2nnc3snc(C)c3c2=O)cc1SCC(F)(F)F [Compound 205] |  |  | 100% |  | 100% | 100% |  |  |
|  |  |  |  | Cc1cc(F)c(-n2nnc3snc(C)c3c2=O)cc1[S+]([O-])CC(F)(F)F (centres unmarked) [Compound 206] |  |  | 100% |  | 100% | 100% | 100% |  |
|  |  |  |  | Cc1cc(F)c(-n2cnc3snc(C(C)(C)C)c3c2=O)cc1[S+]([O-])CC(F)(F)F (centres unmarked) [Compound 208] |  |  | 100% |  | 83% |  | 100% |  |
